From US20040096494A1, “Composition” (priority 2003, published 2004)

Settings: minipig, in vivo

Row | Structure (SMILES) | oral bioavailability, expressed as the systemic exposure to ketoprofen relative to intravenous ketoprofen [%] | oral bioavailability, expressed as the systemic exposure to diclofenac relative to intravenous diclofenac [%]
1 | CC(C(=O)OCc1ccc(CO[N+](=O)[O-])cc1)c1cccc(C(=O)c2ccccc2)c1 (stereo not drawn) [Compound of formula If] | 80 | –
2 | O=C(Cc1ccccc1Nc1c(Cl)cccc1Cl)OCCCCO[N+](=O)[O-] [Compound of formula Ig] | – | 85
3 | CC(C(=O)OCCCCCCO[N+](=O)[O-])c1cccc(C(=O)c2ccccc2)c1 (stereo not drawn) [Compound of formula Ic] | 82 | –
